We go through 20 compounds from US20100215822A1, “MOUTHFEEL ENHANCING INGREDIENTS” (Firmenich SA, priority 2007, published 2010).

Entries after “also recorded” stand apart in the source; their conditions may differ. Like-named read-outs stand apart in the source and are kept apart here.

The subject of one series is skilled panelists. The series can be described thus: Evaluation of the mouthfeel enhancer in Diet Cola, tasted blind by panel. The series is classed as in vivo. Conditions: for Results (mouthfeel, sweetness, off-notes and other descriptors): 5 mg in 300 mL commercial Diet Cola, tasted blind by 4-5 skilled panelists by comparison with Diet Cola without mouthfeel enhancer (reference); for Overall result: deliver the mouthfeel required in the reduced-sugar beverage without further generating undesirable off-notes: 5 mg in 300 mL Diet Cola.

The nature of series [1]: Solubility observed in Diet Cola samples. The procedure:
5 mg of each of the following compounds, all obtained from Avanti Polar Lipids, Inc., Alabama, USA was added to 300 mL of a commercially available Diet Cola in a bottle. The bottles were then closed and shaken by hand for 1 min at room temperature. Following this, the bottles were sonicated for 5 min in an ultrasonic bath and then stored at room temperature overnight. All samples were tasted blind by 4-5 skilled panelists and assessed, by comparison with a Diet Cola not containing any mouthfeel enhancer, for mouthfeel, sweetness, off-notes and other descriptors.

As for `CCCCCCCCCC(=O)OC[C@@H](O)COP(=O)([O-])OCC[N+](C)(C)C` [1-Capryl-2-hydroxy-glycero-3-phosphocholine], the “Results (mouthfeel, sweetness, off-notes and other descriptors)” value (shortened to “Results”) with skilled panelists is “slightly more mouthfeel, close to reference”.
Same read-out and setting: with `CCCCCCCC/C=C\CCCCCCCC(=O)OCC(O)COP(=O)(O)OCC(O)CO` (stereo not shown) [1-Oleoyl-2-hydroxy-glycero-3-phosphoglycerol] the entry was “less sour, more sweet, similar to reference”; with `CCCCCCCCCCCCCCCC(=O)OCC(O)COP(=O)(O)OCC(O)CO` (stereo not shown) [1-Palmitoyl-2-hydroxy-glycero-3-phosphoglycerol], “slightly more mouthfeel, creamy, similar to reference”; with `CCCCCC(=O)OCC(COP(=O)(O)O)OC(=O)CCCCC` (stereo not shown) [Dicaproylphosphatidic acid], “Thin, typical diet cola, slight metallic off-note, and sweet, acidic, more lemon, lingering/long lasting, and oily”.
As to `CCCCCC(=O)OC[C@H](COP(=O)(O)OCC[N+](C)(C)C)OC(=O)CCCCC` [Dicaproylphosphatidyl choline], in the series on skilled panelists, the “Overall result: deliver the mouthfeel required in the reduced-sugar beverage without further generating undesirable off-notes” value is on record as “Excellent results”; the “Results” value is listed as “More acidity than others, sweeter, smoother, fuller,; also recorded: more mouthfeel, similar mouthfeel”.
Consider `CCCCCC(=O)OC[C@H](COP(=O)(O)OCCN)OC(=O)CCCCC` [Dicaproylphosphatidyl ethanolamine], for which the “Results” value with skilled panelists is “Quite metallic, slightly more fatty, sweet lingering,; also recorded: thin, less sweet, less flavor, lingering fatty taste;”.
On the same count and under the same terms, with `CCCCCCCC(=O)OC[C@H](COP(=O)([O-])OCC[N+](C)(C)C)OC(=O)CCCCCCC` [Dicapryloylphosphatidylcholine] the entry was “Some mouthfeel, similar to reference, slight off-note”.
As to `CCCCCCCCCCCC(=O)OC[C@H](COP(=O)(O)O)OC(=O)CCCCCCCCCCC` [Dilauroylphosphatidic acid], the “Results” value in the series on skilled panelists is “More Mouthfeel, fatty, fuller, clean, acidic, more; also recorded: sour and harsh, oily”.
Take `CCCCCCCCCCCC(=O)OC[C@H](COP(=O)([O-])OCC[N+](C)(C)C)OC(=O)CCCCCCCCCCC` [Dilauroylphosphatidyl choline]: the “Overall result: deliver the mouthfeel required in the reduced-sugar beverage without further generating undesirable off-notes” value in the series with skilled panelists is “Excellent results”.
Regarding `CCCCCCCCCCCC(=O)OC[C@H](COP(=O)(O)OCCN)OC(=O)CCCCCCCCCCC` [Dilauroylphosphatidyl ethanolamine], the “Results” value in the series on skilled panelists is recorded as “Very similar to reference, slightly fuller, sweeter,; also recorded: citrusy”.
For `CCCCCCCCCCCC(=O)OCC(COP(=O)(O)OCC(O)CO)OC(=O)CCCCCCCCCCC` (stereo not shown) [Dilauroylphosphatidyl glycerol], the “Results” value in the series on skilled panelists is reported as “Sweeter, similar to reference, fatty, off-note, waxy,; also recorded: good sweetness, slightly flat aroma”.
For `CCCCCCCCCCCCCC(=O)OC[C@H](COP(=O)([O-])OCC[N+](C)(C)C)OC(=O)CCCCCCCCCCCCC` [Dimyristoylphosphatidylcholine], in the series with skilled panelists, the “Overall result: deliver the mouthfeel required in the reduced-sugar beverage without further generating undesirable off-notes” value is “Excellent results”; the “Results” value was “carbonated, sweeter”.
Consider `CCCCCCCC/C=C\CCCCCCCC(=O)OC[C@H](COP(=O)(O)O)OC(=O)CCCCCCC/C=C\CCCCCCCC` [Dioleoylphosphatidic acid], for which the “Results” value with skilled panelists is given as “More mouthfeel, fatty, fuller, very drying,; also recorded: mouthcoating, less lingering, oily”.
In the case of `CCCCCCCC/C=C\CCCCCCCC(=O)OC[C@H](COP(=O)(O)OCCN)OC(=O)CCCCCCC/C=C\CCCCCCCC` [Dioleoylphosphatidyl ethanolamine], the “Solubility in Diet Cola” value in series [1] is on record as “not completely soluble”. In addition, in the series with skilled panelists, the “Results” value is “Slightly sweeter, slightly more bitter, fatty/waxy off-”.
Turning to `CCCCCCCC/C=C\CCCCCCCC(=O)OC[C@H](COP(=O)(O)OCC(O)CO)OC(=O)CCCCCCC/C=C\CCCCCCCC` (stereo partly shown) [Dioleoylphosphatidyl glycerol], the “Results” value with skilled panelists is “chemical, slight off-note on taste”.
Turning to `CCCCCCCCCCCCCCCC(=O)OC[C@H](COP(=O)(O)O)OC(=O)CCCCCCCCCCCCCCC` [Dipalmitoylphosphatidic acid], in the series with skilled panelists, the “Overall result: deliver the mouthfeel required in the reduced-sugar beverage without further generating undesirable off-notes” value is reported as “Excellent results”; the “Results” value is on record as “smooth, good mouthfeel, slightly oily, no off-note; also recorded: More mouthfeel, fatty, fuller, heavy, sweeter,”.
With `CCCCCCCCCCCCCCCC(=O)OC[C@H](COP(=O)([O-])OCC[N+](C)(C)C)OC(=O)CCCCCCCCCCCCCCC` [Dipalmitoylphosphatidyl choline], in the series on skilled panelists, the “Overall result: deliver the mouthfeel required in the reduced-sugar beverage without further generating undesirable off-notes” value is given as “Excellent results”; the “Results” value is recorded as “Sweeter, nice sweetness but lingering, good; also recorded: difference, slightly fuller, slightly fatty”.
Consider `CCCCCCCCCCCCCCCC(=O)OCC(COP(=O)(O)OCCN)OC(=O)CCCCCCCCCCCCCCC` (stereo not shown) [Dipalmitoylphosphatidyl ethanolamine], for which the “Solubility in Diet Cola” value in series [1] (5 mg in 300 mL Diet Cola, shaken 1 min, sonicated 5 min, stored at room temperature overnight) was “completely soluble”. In addition, the “Results” value with skilled panelists is recorded as “less flavor, lingering fatty”.
Turning to `CCCCCCCCCCCCCCCC(=O)OCC(COP(=O)(O)OCC(O)CO)OC(=O)CCCCCCCCCCCCCCC` (stereo not shown) [Dipalmitoylphosphatidyl glycerol], in the series on skilled panelists, the “Overall result: deliver the mouthfeel required in the reduced-sugar beverage without further generating undesirable off-notes” value was “Excellent results”; the “Results” value is recorded as “Seems less carbonated, less acidic, more citrusy; also recorded: aroma, better mouthfeel, less metallic, good; also recorded: no off-note”.
For Dicaprylphosphatidylcholine, in the series on skilled panelists, the “Overall result: deliver the mouthfeel required in the reduced-sugar beverage without further generating undesirable off-notes” value was “Excellent results”; the “Results” value is recorded as “More mouthfeel, good mouthfeel, more body,; also recorded: creamy, sl. more sweet, good sweetness”.
